Series [1] can be described thus: Solubility. Type of series: physicochemical.
Series [2] relates to HR-3Y1 cells. Kind of series: Growth inhibition against HR-3Y1 cells. Type of series: cell-based. To be noted: 72 hours, 37° C., Giemsa staining. The method, then:
An HR-3Y1 cell suspension (3.0×10^4 cells/ml) prepared by suspending HR-3Y1 cells in a medium comprising MEM medium (Nissui Pharmaceutical Co., Ltd.) and 10% fetal calf serum (hereinafter referred to as Medium A) was put into wells of a 96-well microtiter plate in an amount of 0.1 ml per well. After the cells in the plate were cultivated at 37° C. for 20 hours in a CO2 -incubator, a test compound appropriately diluted with Medium A was added to the wells in an amount of 0.1 ml per well. The cells were further cultivated at 37° C. for 72 hours in the CO2 -incubator. After the cultivation supernatant was removed, the residue was washed once with physiological saline and then treated with 0.1 ml of methanol for 10 minutes to fix the cells. The cells were stained with 0.1 ml of Giemsa's staining solution [Giemsa's staining solution, Merck Art 9204 (Merck & Co., Inc.): physiological saline=1:10] for 5 minutes. After the staining solution was removed, the residue was washed once with 0.2 ml of water. Then, the dye was extracted with 0.2 ml of 0.1 N hydrochloric acid and the absorbance was measured at 620 nm with a microplate reader.
The concentration of the test compound at which the growth of the cells is inhibited by 50% (IC50) was calculated by comparing the absorbance of untreated cells with those of the cells treated with the test compound at known concentrations.

The subject of series [3] is Enterococcus faecium ATCC 10541. The series is described as follows: Antibacterial activity (MIC), agar dilution method. Type of series: cell-based. The method, then: (§1) The antibacterial activity was determined by the agar dilution method using a medium (pH 7) which comprises 3 g/l Bacto-tryptone (Difco Laboratories),3 g/l meat extract, 1 g/f yeast extract, 1 g/l glucose and 16 g/l agar.
(Agar dilution tests growth on a series of plates holding different concentrations.)

The subject of series [4] is Staphylococcus aureus ATCC 6538P. The series is described as follows: Antibacterial activity (MIC), agar dilution method. Type of series: cell-based. Conditions: ATCC6538P, pH 7. The method, then:
as §1

Series [5] concerns Candida albicans ATCC 10231. Kind of series: Antibacterial activity (MIC), agar dilution method. The class given is cell-based. The method, then:
as §1

The test system of series [6] is isogenic tumor in K-BALB mice. The series is described as follows: Antitumor activity against isogenic tumor system in K-BALB mice. The class given is in vivo. To be noted: 10.0 mg/kg, intraperitoneal, 5 consecutive days from 7th day after s.c. transplantation, BALB/c mouse. As for the experimental part:
The antitumor activity against an isogenic tumor system in K-BALB mice was measured according to the method described in Proc. Natl. Acad. Sci., 90, 2281 (1993). That is, an isogenic tumor in K-BALB mice was resected from a donor mouse, and a 2×2×2 mm (8 mm^3) tumor piece was subcutaneously transplanted into a BALB/c mouse at the ventral side using a trocar. After the graft survival was confirmed on the 7th day after the transplantation, a test compound was intraperitoneally administered for 5 consecutive days from the same day. The longer diameter and the shorter diameter of the tumor were measured with slide calipers, and the tumor volume was calculated according to the formula: (longer diameter)×(shorter diameter)^2 /2 [Cancer Chemother. Rep., Part III, 3, 1 (1972)]. The antitumor effect was evaluated in terms of T/C, the ratio of the tumor volume of a test compound-treated group (T) to that of an untreated group (C).

Series [7] deals with BALB 3T3/H-ras cells. Kind of series: Growth inhibition against BALB 3T3/H-ras cells. The class given is cell-based. To be noted: Mus musculus, 72 hours, 37° C., Giemsa staining. As for the experimental part:
A BALB 3T3/H-ras cell suspension (3.0×10^4 cells/ml) prepared by suspending BALB 3T3/H-ras cells ([…]) in a medium comprising MEM medium (Nissui Pharmaceutical Co., Ltd.) and 10% fetal calf serum (hereinafter referred to as Medium A) was put into wells of a 96-well microtiter plate in an amount of 0.1 ml per well. After the cells in the plate were cultivated at 37° C. for 20 hours in a CO2 -incubator, a test compound appropriately diluted with Medium A was added to the wells in an amount of 0.1 ml per well. The cells were further cultivated at 37° C. for 72 hours in the CO2 -incubator. After the cultivation supernatant was removed, the residue was washed once with physiological saline and then treated with 0.1 ml of methanol for 10 minutes to fix the cells. The cells were stained with 0.1 ml of Giemsa's staining solution [Giemsa's staining solution, Merck Art 9204 (Merck & Co., Inc.): physiological saline=1:10] for 5 minutes. After the staining solution was removed, the residue was washed once with 0.2 ml of water. Then, the dye was extracted with 0.2 ml of 0.1 N hydrochloric acid and the absorbance was measured at 620 nm with a microplate reader. […]

The mark [8] stands for this setting: ATCC10541, Enterococcus faecium ATCC 10541, agar dilution, pH 7, read-out: MIC.
The mark [9] stands for this setting: Staphylococcus aureus ATCC 6538P, agar dilution, read-out: MIC.
Where [10] appears, read: ATCC10231, Candida albicans ATCC 10231, agar dilution, pH 7, read-out: MIC.

Structures are written as SMILES. Converted amounts (≈) assume the structure as drawn. Where two headings read alike, the source gives them in different places.

Turning to `CO[C@H]1/C=C/C=C/C=C/C[C@H](OC(=O)C2(NC(=O)C3CCCCC3)CC2)[C@H](C)[C@@H](O)/C(C)=C\CCC2=CC(=O)C=C(NC(=O)C1)C2=O` [UCF116-A3], the “Solubility in DMSO, chloroform, acetone and ethyl acetate” value (from here on “Solubility in DMSO, chloroform”) in series [1] was “Soluble”. Moreover, the “Solubility in water and hexane” value in series [1] is “insoluble”. For the same compound, in series [2], half-maximal inhibition (IC50) was put at 950 nM. Further, the MIC (as a rule, the lowest concentration that inhibits growth of the organism) worked out at 83.3 µg/mL (≈ 128 µM) in series [3] (setting [8]), 41.7 µg/mL (≈ 64.3 µM) in series [4] (setting [9]) and 41.7 µg/mL (≈ 64.3 µM) in series [5] (setting [10]).

In the case of `CO[C@H]1/C=C/C=C/C=C/C[C@H](OC(=O)[C@@H](C)NC(=O)C2=CCCCC2)[C@H](C)[C@@H](O)/C(C)=C\CCc2cc(O)cc(c2O)NC(=O)C1` [UCF116-B], in series [1], the “Solubility in DMSO, chloroform” value is given as “Soluble”. Besides, in series [1], the “Solubility in water and hexane” value was “insoluble”. For the same compound, the “T/C (ratio of tumor volume of treated group to untreated group)” value in series [6] was 0.25. Moreover, the IC50 (usually the midpoint of a concentration-inhibition curve) came to 350 nM in series [2] and 390 nM in series [7]. In addition, the MIC in series [3] (setting [8]) came out at 41.7 µg/mL (≈ 65.5 µM); in series [4] (setting [9]), 41.7 µg/mL (≈ 65.5 µM); in series [5] (setting [10]) it was 20.8 µg/mL (≈ 32.7 µM).

On to `C/C=C(\C)C(=O)N[C@H](C)C(=O)O[C@H]1C/C=C/C=C/C=C/[C@H](OC)CC(=O)Nc2cc(O)cc(c2O)CC/C=C(/C)[C@H](O)[C@H]1C` [UCF116-D], for which the “Solubility in DMSO, chloroform” value in series [1] is given as “Soluble”. Also, the “Solubility in water and hexane” value in series [1] is reported as “insoluble”. The compound further displayed an IC50 in series [7] of 660 nM. Besides, the MIC in series [3] (Enterococcus faecium, ATCC10541, pH 7) was found to be 83.3 µg/mL (≈ 136 µM); in series [4] (Staphylococcus aureus), 83.3 µg/mL (≈ 136 µM); in series [5] (Candida albicans, ATCC10231, pH 7), 83.3 µg/mL (≈ 136 µM).

The values are drawn from patent publication US5686606A, “UCF116 compounds” (Kyowa Hakko Kogyo, Co., Ltd., priority 1994, dated 1997).
